According to patent publication US11230543B2, “Biaryl monobactam compounds and methods of use thereof for the treatment of bacterial infections” (priority 2015, dated 2022):
Structures can show the parent of a compound that is named as a salt.

Key:
[1] = tested on: Pseudomonas aeruginosa expressing AmpC (CL5701); test: Antibiotic activity: growth inhibitory concentration (OD600), Pseudomonas aeruginosa CL5701; type: cell-based; conditions: lowest concentration inhibiting 95% of bacterial growth; in the presence of β lactamase inhibitor Relebactam 4 μg/mL; 35±2° C. for 22 hours; tested range 100 μM to 0.098 μM
Method in brief: (§1)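 Growth inhibition by OD600 after 22 hours incubation at 35±2° C, reported as lowest concentration inhibiting 95% of growth (MITC95). Final compound range 100 μM to 0.098 μM, always combined with β-lactamase inhibitor relebactam (4 μg/mL final); inoculum ~2×10^5 CFU/mL in cation-adjusted Mueller-Hinton II broth.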

[2] = tested on: Klebsiella pneumoniae expressing KPC-1 (CL6569); test: Antibiotic activity: growth inhibitory concentration (OD600), Klebsiella pneumoniae CL6569; type: cell-based; conditions: lowest concentration inhibiting 95% of bacterial growth; in the presence of β lactamase inhibitor Relebactam 4 μg/mL; 35±2° C. for 22 hours; tested range 100 μM to 0.098 μM
Method in brief: as §1

| Compound | PA_CL5701 MITC95 [1] | KP_CL6569 MITC95 [2] |
| --- | --- | --- |
| CC1(C)[C@H](NC(=O)/C(=N\O[C@@H](COc2ccc(Nc3cc[n+](CCCN)cc3)nc2)C(=O)O)c2csc(N)n2)C(=O)N1OS(=O)(=O)O [Example 33, 1-(3-aminopropyl)-4-((5-((S)-2-((((Z)-1-(2-aminothiazol-4-yl)-2-(((S)-2,2-dimethyl-4-oxo-1-(sulfooxy)azetidin-3-yl)amino)-2-oxoethylidene)amino)oxy)-2-carboxyethoxy)pyridin-2-yl)amino)pyridin-1-ium 2,2,2-trifluoroacetate] | 6.25 µM | 0.3906 µM |
| CC1(C)[C@H](NC(=O)/C(=N\O[C@@H](COc2ccc(Oc3cc[n+](CCCN)cc3)nc2)C(=O)O)c2csc(N)n2)C(=O)N1OS(=O)(=O)O.O=C([O-])C(F)(F)F [Example 34, 1-(3-aminopropyl)-4-((5-((S)-2-((((Z)-1-(2-aminothiazol-4-yl)-2-(((S)-2,2-dimethyl-4-oxo-1-(sulfooxy)azetidin-3-yl)amino)-2-oxoethylidene)amino)oxy)-2-carboxyethoxy)pyridin-2-yl)oxy)pyridin-1-ium 2,2,2-trifluoroacetate] | 25 µM | 0.78 µM |
| CC1(C)[C@H](NC(=O)/C(=N\OCCOc2ccc(-n3cc[n+](CCCN)c3)nc2)c2csc(N)n2)C(=O)N1OS(=O)(=O)[O-] [Example 35, (S,Z)-3-(2-((2-((6-(3-(3-aminopropyl)-1H-imidazol-3-ium-1-yl)pyridin-3-yl)oxy)ethoxy)imino)-2-(2-aminothiazol-4-yl)acetamido)-2,2-dimethyl-4-oxoazetidin-1-yl sulfate 2,2,2-trifluoroacetate] | 50 µM | 1.281 µM |
| CC1(C)[C@H](NC(=O)/C(=N\O[C@@H](COc2ccc(-n3cc[n+](CCCN)c3)nc2)C(=O)O)c2csc(N)n2)C(=O)N1OS(=O)(=O)[O-] [Example 36, (S)-3-((Z)-2-(((S)-2-((6-(3-(3-aminopropyl)-1H-imidazol-3-ium-1-yl)pyridin-3-yl)oxy)-1-carboxyethoxy)imino)-2-(2-aminothiazol-4-yl)acetamido)-2,2-dimethyl-4-oxoazetidin-1-yl sulfate compound with 2,2,2-trifluoroacetic acid (1:1)] | 6.25 µM | 0.7813 µM |
| CC1(C)[C@H](NC(=O)/C(=N\O[C@@H](COc2ccc(Nc3nccn3CCCN)nc2)C(=O)O)c2csc(N)n2)C(=O)N1OS(=O)(=O)O [Example 37A, 3-(2-((5-((S)-2-((((Z)-1-(2-aminothiazol-4-yl)-2-(((S)-2,2-dimethyl-4-oxo-1-(sulfooxy)azetidin-3-yl)amino)-2-oxoethylidene)amino)oxy)-2-carboxyethoxy)pyridin-2-yl)amino)-1H-imidazol-1-yl)propan-1-aminium 2,2,2-trifluoroacetate] | 3.13 µM | 0.78 µM |
| CC1(C)[C@H](NC(=O)/C(=N\O[C@H](COc2ccc(Nc3nccn3CCCN)nc2)C(=O)O)c2csc(N)n2)C(=O)N1OS(=O)(=O)O [Example 37B, 3-(2-((5-((R)-2-((((Z)-1-(2-aminothiazol-4-yl)-2-(((S)-2,2-dimethyl-4-oxo-1-(sulfooxy)azetidin-3-yl)amino)-2-oxoethylidene)amino)oxy)-2-carboxyethoxy)pyridin-2-yl)amino)-1H-imidazol-1-yl)propan-1-aminium 2,2,2-trifluoroacetate] | 25 µM | 6.25 µM |
| C[n+]1cc(-c2ccc(OC[C@H](O/N=C(\C(=O)N[C@@H]3C(=O)N(OS(=O)(=O)[O-])C3(C)C)c3csc(N)n3)C(=O)O)cc2Cl)cn1CCCN [Example 38, (S)-3-((Z)-2-(((S)-2-(4-(1-(3-aminopropyl)-2-methyl-1H-pyrazol-2-ium-4-yl)-3-chlorophenoxy)-1-carboxyethoxy)imino)-2-(2-aminothiazol-4-yl)acetamido)-2,2-dimethyl-4-oxoazetidin-1-yl sulfate] | 6.25 µM | 0.3906 µM |
